In this assay the target is T1, Guanine deaminase (Homo sapiens, UniProt Q9Y2T3).
T1 sequence (Q9Y2T3 whole entry): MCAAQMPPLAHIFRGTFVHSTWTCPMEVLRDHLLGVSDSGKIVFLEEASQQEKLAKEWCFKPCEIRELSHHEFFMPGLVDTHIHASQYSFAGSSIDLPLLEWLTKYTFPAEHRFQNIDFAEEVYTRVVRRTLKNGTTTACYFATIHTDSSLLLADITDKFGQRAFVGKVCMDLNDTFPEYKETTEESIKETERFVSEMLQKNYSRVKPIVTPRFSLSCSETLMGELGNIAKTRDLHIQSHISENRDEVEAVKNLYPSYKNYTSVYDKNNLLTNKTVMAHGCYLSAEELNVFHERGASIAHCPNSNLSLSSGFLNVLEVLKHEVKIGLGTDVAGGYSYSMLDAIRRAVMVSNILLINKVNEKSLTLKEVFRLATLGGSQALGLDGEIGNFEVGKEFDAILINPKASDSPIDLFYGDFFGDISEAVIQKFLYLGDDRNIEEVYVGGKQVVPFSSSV
The assay can be described thus: Competitive inhibition of guanase by Lineweaver-Burk plot analysis.

By Ki is commonly meant a dissociation constant, usually derived from enzyme kinetics or from competition with a known ligand. Low values mean tighter binding, high ones weaker binding. In the case of `O=C(NC1(CO)NC(=O)c2ncn(Cc3ccccc3)c2NC1=O)OCc1ccccc1` (stereo unspecified), the affinity, expressed as Ki, was 16.7 µM.
